Results published in the supplement of paper PMC10307832.

Assays:
Assay in all cases: relative viability (nuclei count vs DMSO), 5 days (fraction); higher = more cells survive
[1] = tested on: RERF-LC-KJ
Procedure, shortened: (§1)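 Cells from lung cancer lines were seeded into 1536-well plates and, one day later, dosed by pin tool. Treatments were either a single drug or a fixed dose of an anchor drug with five library-drug doses (not always all listed) in √10 steps. After 5 days, nuclei were stained in a one-step fixation (final 0.05% Triton X-100, 1% formaldehyde, 1 ug/ml Hoechst) and counted on 4× images, and relative viability is the treated-to-vehicle nuclei ratio, as the median of duplicate plates.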

[2] = tested on: PC-14
Procedure, shortened: as §1

[3] = tested on: NCI-H2405
Procedure, shortened: as §1

[4] = tested on: NCI-H1666
Procedure, shortened: as §1

[5] = tested on: NCI-H23
Procedure, shortened: as §1

[6] = tested on: NCI-H2126
Procedure, shortened: as §1

[7] = tested on: HCC-827
Procedure, shortened: as §1

[8] = tested on: HCC-78
Procedure, shortened: as §1

[9] = tested on: H3255
Procedure, shortened: as §1

[10] = tested on: NCI-H650
Procedure, shortened: as §1

[11] = tested on: NCI-H520
Procedure, shortened: as §1

[12] = tested on: NCI-H661
Procedure, shortened: as §1

[13] = tested on: NCI-H2087
Procedure, shortened: as §1

[14] = tested on: NCI-H647
Procedure, shortened: as §1

[15] = tested on: 201T
Procedure, shortened: as §1

[16] = tested on: NCI-H1915
Procedure, shortened: as §1

[17] = tested on: LCLC-97TM1
Procedure, shortened: as §1

[18] = tested on: EPLC-272H
Procedure, shortened: as §1

[19] = tested on: LC-2-ad
Procedure, shortened: as §1

[20] = tested on: ChaGo-K-1
Procedure, shortened: as §1

[21] = tested on: NCI-H2347
Procedure, shortened: as §1

[22] = tested on: COR-L 105
Procedure, shortened: as §1

Structure (SMILES): COc1nc(C)cnc1NS(=O)(=O)c1cccnc1-c1ccc(-c2nnco2)cc1 [Zibotentan] + CC(C)C[C@H](NC(=O)[C@H](Cc1ccccc1)NC(=O)c1cnccn1)B(O)O [Bortezomib] (partner 0.002 µM)
- relative viability ([1]; first compound 0.08 µM): 1.04
- relative viability ([1]; first compound 0.253 µM): 1.1
- relative viability ([1]; first compound 0.8 µM): 1.09
- relative viability ([1]; first compound 2.53 µM): 0.998
- relative viability ([2]; first compound 0.08 µM): 0.872
- relative viability ([2]; first compound 0.253 µM): 0.922
- relative viability ([2]; first compound 0.8 µM): 0.897
- relative viability ([2]; first compound 2.53 µM): 0.861
- relative viability ([3]; first compound 0.08 µM): 1.02
- relative viability ([3]; first compound 0.253 µM): 1.05
- relative viability ([3]; first compound 0.8 µM): 0.991
- relative viability ([3]; first compound 2.53 µM): 0.963
- relative viability ([4]; first compound 0.08 µM): 0.76
- relative viability ([4]; first compound 0.253 µM): 0.599
- relative viability ([4]; first compound 0.8 µM): 0.8
- relative viability ([4]; first compound 2.53 µM): 1
- relative viability ([5]; first compound 0.08 µM): 1.25
- relative viability ([5]; first compound 0.253 µM): 1.1
- relative viability ([5]; first compound 0.8 µM): 0.999
- relative viability ([5]; first compound 2.53 µM): 1.29
- relative viability ([6]; first compound 0.08 µM): 1.19
- relative viability ([6]; first compound 0.253 µM): 1.15
- relative viability ([6]; first compound 0.8 µM): 1.15
- relative viability ([6]; first compound 2.53 µM): 1.16
- relative viability ([7]; first compound 0.08 µM): 1.08
- relative viability ([7]; first compound 0.253 µM): 0.994
- relative viability ([7]; first compound 0.8 µM): 1.05
- relative viability ([7]; first compound 2.53 µM): 1.04
- relative viability ([8]; first compound 0.08 µM): 0.473
- relative viability ([8]; first compound 0.253 µM): 0.443
- relative viability ([8]; first compound 0.8 µM): 0.563
- relative viability ([8]; first compound 2.53 µM): 0.485
- relative viability ([9]; first compound 0.08 µM): 0.791
- relative viability ([9]; first compound 0.253 µM): 0.963
- relative viability ([9]; first compound 0.8 µM): 0.996
- relative viability ([9]; first compound 2.53 µM): 0.822
- relative viability ([10]; first compound 0.08 µM): 0.769
- relative viability ([10]; first compound 0.253 µM): 0.742
- relative viability ([10]; first compound 0.8 µM): 0.726
- relative viability ([10]; first compound 2.53 µM): 0.696
- relative viability ([11]; first compound 0.08 µM): 0.541
- relative viability ([11]; first compound 0.253 µM): 0.532
- relative viability ([11]; first compound 0.8 µM): 0.575
- relative viability ([11]; first compound 2.53 µM): 0.821
- relative viability ([12]; first compound 0.08 µM): 1.02
- relative viability ([12]; first compound 0.253 µM): 0.656
- relative viability ([12]; first compound 0.8 µM): 0.89
- relative viability ([12]; first compound 2.53 µM): 0.841
- relative viability ([13]; first compound 0.08 µM): 0.939
- relative viability ([13]; first compound 0.253 µM): 0.801
- relative viability ([13]; first compound 0.8 µM): 0.736
- relative viability ([13]; first compound 2.53 µM): 0.873
- relative viability ([14]; first compound 0.08 µM): 0.859
- relative viability ([14]; first compound 0.253 µM): 0.818
- relative viability ([14]; first compound 0.8 µM): 0.891
- relative viability ([14]; first compound 2.53 µM): 1.11
- relative viability ([15]; first compound 0.08 µM): 1.1
- relative viability ([15]; first compound 0.253 µM): 1.05
- relative viability ([15]; first compound 0.8 µM): 1.11
- relative viability ([15]; first compound 2.53 µM): 1.11
- relative viability ([16]; first compound 0.08 µM): 1.1
- relative viability ([16]; first compound 0.253 µM): 0.986
- relative viability ([16]; first compound 0.8 µM): 1.01
- relative viability ([16]; first compound 2.53 µM): 0.965
- relative viability ([17]; first compound 0.08 µM): 0.631
- relative viability ([17]; first compound 0.8 µM): 0.657
- relative viability ([17]; first compound 2.53 µM): 0.688
- relative viability ([18]; first compound 0.08 µM): 1.04
- relative viability ([18]; first compound 0.253 µM): 0.906
- relative viability ([18]; first compound 0.8 µM): 0.843
- relative viability ([18]; first compound 2.53 µM): 0.862
- relative viability ([19]; first compound 0.08 µM): 1.03
- relative viability ([19]; first compound 0.253 µM): 0.932
- relative viability ([19]; first compound 0.8 µM): 0.921
- relative viability ([19]; first compound 2.53 µM): 1.07
- relative viability ([20]; first compound 0.08 µM): 0.956
- relative viability ([20]; first compound 0.8 µM): 0.977
- relative viability ([20]; first compound 2.53 µM): 0.99
- relative viability ([21]; first compound 0.08 µM): 1.08
- relative viability ([21]; first compound 0.253 µM): 0.871
- relative viability ([21]; first compound 0.8 µM): 1.04
- relative viability ([21]; first compound 2.53 µM): 0.734
- relative viability ([22]; first compound 0.08 µM): 0.819
- relative viability ([22]; first compound 0.253 µM): 0.694
- relative viability ([22]; first compound 0.8 µM): 0.859
- relative viability ([22]; first compound 2.53 µM): 0.994
